Assays:
[1] = pKa of [Re]–F3Y–βC19; format: physicochemical; details: pH 8.3
[2] = pH 8.3; cited from earlier work
[3] = test system: α2: β2 complex; details: cited from earlier work

For N[C@@H](Cc1c(F)cc(O)c(F)c1F)C(=O)O [F3Y, 2,3,6-trifluorotyrosine], the F3Y deprotonated [1] is given as ~ 94% and the “reduction potential of F3Y above tyrosine” value [2] is given as ~ 180 mV.

B1: wild type α2: β2 complex: E. coli class Ia ribonucleotide reductase (protein, UniProt P00452 1-761; P69924 2-376, looked up)
Ribonucleoside-diphosphate … 1: MNQNLLVTKRDGSTERINLDKIHRVLDWAAEGLHNVSISQVELRSHIQFYDGIKTSDIHETIIKAAADLISRDAPDYQYLAARLAIFHLRKKAYGQFEPPALYDHVVKMVEMGKYDNHLLEDYTEEEFKQMDTFIDHDRDMTFSYAAVKQLEGKYLVQNRVTGEIYESAQFLYILVAACLFSNYPRETRLQYVKRFYDAVSTFKISLPTPIMSGVRTPTRQFSSCVLIECGDSLDSINATSSAIVKYVSQRAGIGINAGRIRALGSPIRGGEAFHTGCIPFYKHFQTAVKSCSQGGVRGGAATLFYPMWHLEVESLLVLKNNRGVEGNRVRHMDYGVQINKLMYTRLLKGEDITLFSPSDVPGLYDAFFADQEEFERLYTKYEKDDSIRKQRVKAVELFSLMMQERASTGRIYIQNVDHCNTHSPFDPAIAPVRQSNLCLEIALPTKPLNDVNDENGEIALCTLSAFNLGAINNLDELEELAILAVRALDALLDYQDYPIPAAKRGAMGRRTLGIGVINFAYYLAKHGKRYSDGSANNLTHKTFEAIQYYLLKASNELAKEQGACPWFNETTYAKGILPIDTYKKDLDTIANEPLHYDWEALRESIKTHGLRNSTLSALMPSETSSQISNATNGIEPPRGYVSIKASKDGILRQVVPDYEHLHDAYELLWEMPGNDGYLQLVGIMQKFIDQSISANTNYDPSRFPSGKVPMQQLLKDLLTAYKFGVKTLYYQNTRDGAEDAQDDLVPSIQDDGCESGACKI
Ribonucleoside-diphosphate … 2: AYTTFSQTKNDQLKEPMFFGQPVNVARYDQQKYDIFEKLIEKQLSFFWRPEEVDVSRDRIDYQALPEHEKHIFISNLKYQTLLDSIQGRSPNVALLPLISIPELETWVETWAFSETIHSRSYTHIIRNIVNDPSVVFDDIVTNEQIQKRAEGISSYYDELIEMTSYWHLLGEGTHTVNGKTVTVSLRELKKKLYLCLMSVNALEAIRFYVSFACSFAFAERELMEGNAKIIRLIARDEALHLTGTQHMLNLLRSGADDPEMAEIAEECKQECYDLFVQAAQQEKDWADYLFRDGSMIGLNKDILCQYVEYITNIRMQAVGLDLPFQTRSNPIPWINTWLVSDNVQVAPQEVEVSSYLVGQIDSEVDTDDLSNFQL
In the case of B1, the baseline catalytic turnover [3] is listed as 2 to 10 s⁻¹.

From publication PMC3268775 (Journal of the American Chemical Society, 2012)
